Measurements as given in PMC9851200, “Multiparameter phenotypic screening for endogenous TFEB and TFE3 translocation identifies novel chemical series modulating lysosome function” (Autophagy, 2022).

What was measured:
Assay type in all cases: binding
[1] = molecular target: T1, kinases (KINOMEscan panel) (Homo sapiens, UniProt O95835); settings: LATS1; NEW KINOMEscan
T1 sequence (O95835 1-1130): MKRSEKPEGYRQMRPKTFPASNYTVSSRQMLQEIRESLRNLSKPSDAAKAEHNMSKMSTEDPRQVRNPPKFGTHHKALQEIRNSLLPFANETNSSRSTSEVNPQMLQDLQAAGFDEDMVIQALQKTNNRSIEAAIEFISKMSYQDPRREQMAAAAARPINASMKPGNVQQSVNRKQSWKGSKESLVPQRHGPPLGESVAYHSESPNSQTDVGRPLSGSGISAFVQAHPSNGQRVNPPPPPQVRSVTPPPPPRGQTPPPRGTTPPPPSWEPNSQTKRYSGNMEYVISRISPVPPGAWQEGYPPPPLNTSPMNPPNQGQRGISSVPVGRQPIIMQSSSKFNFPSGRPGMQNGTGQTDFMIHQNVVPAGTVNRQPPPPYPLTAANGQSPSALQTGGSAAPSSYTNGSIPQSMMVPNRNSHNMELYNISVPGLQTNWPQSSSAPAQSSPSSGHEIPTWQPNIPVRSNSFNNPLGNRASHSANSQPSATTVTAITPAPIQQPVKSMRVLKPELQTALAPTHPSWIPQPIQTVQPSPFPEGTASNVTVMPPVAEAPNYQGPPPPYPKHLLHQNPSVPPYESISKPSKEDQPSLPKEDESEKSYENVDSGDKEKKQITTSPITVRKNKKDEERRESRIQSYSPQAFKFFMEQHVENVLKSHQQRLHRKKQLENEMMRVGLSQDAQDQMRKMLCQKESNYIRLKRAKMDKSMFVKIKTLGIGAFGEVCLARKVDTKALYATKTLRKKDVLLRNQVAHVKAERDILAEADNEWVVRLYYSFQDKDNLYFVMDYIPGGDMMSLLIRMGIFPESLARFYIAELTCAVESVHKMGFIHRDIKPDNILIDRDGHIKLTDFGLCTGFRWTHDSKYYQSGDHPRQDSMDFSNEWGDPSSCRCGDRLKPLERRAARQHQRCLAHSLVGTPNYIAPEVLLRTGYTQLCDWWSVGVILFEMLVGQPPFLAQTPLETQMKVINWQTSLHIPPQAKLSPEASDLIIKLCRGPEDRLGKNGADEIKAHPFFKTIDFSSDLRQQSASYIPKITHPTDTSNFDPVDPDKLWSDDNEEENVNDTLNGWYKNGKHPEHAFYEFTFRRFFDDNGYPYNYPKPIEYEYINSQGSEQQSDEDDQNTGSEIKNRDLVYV

[2] = molecular target: T2, kinases (KINOMEscan panel) (Homo sapiens, UniProt Q96D53); settings: kinase COQ8B; NEW KINOMEscan
T2 sequence (Q96D53 1-544): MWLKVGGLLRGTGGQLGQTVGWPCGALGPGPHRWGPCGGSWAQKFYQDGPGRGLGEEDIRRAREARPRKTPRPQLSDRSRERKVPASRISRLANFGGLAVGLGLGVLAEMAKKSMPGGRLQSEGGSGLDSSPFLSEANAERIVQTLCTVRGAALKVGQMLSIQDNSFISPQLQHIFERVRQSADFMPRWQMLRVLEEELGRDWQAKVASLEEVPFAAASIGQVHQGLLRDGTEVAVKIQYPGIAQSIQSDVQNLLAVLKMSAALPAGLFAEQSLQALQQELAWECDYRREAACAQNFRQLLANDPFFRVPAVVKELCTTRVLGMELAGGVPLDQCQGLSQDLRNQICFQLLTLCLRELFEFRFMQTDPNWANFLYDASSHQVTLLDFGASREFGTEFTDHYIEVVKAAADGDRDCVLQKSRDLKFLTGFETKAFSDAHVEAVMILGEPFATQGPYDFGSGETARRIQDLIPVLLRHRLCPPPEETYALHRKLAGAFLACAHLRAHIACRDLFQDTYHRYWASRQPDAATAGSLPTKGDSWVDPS

[3] = molecular target: T3, kinases (KINOMEscan panel) (Homo sapiens, UniProt O00329); settings: NEW KINOMEscan
T3 sequence (O00329 1-1044): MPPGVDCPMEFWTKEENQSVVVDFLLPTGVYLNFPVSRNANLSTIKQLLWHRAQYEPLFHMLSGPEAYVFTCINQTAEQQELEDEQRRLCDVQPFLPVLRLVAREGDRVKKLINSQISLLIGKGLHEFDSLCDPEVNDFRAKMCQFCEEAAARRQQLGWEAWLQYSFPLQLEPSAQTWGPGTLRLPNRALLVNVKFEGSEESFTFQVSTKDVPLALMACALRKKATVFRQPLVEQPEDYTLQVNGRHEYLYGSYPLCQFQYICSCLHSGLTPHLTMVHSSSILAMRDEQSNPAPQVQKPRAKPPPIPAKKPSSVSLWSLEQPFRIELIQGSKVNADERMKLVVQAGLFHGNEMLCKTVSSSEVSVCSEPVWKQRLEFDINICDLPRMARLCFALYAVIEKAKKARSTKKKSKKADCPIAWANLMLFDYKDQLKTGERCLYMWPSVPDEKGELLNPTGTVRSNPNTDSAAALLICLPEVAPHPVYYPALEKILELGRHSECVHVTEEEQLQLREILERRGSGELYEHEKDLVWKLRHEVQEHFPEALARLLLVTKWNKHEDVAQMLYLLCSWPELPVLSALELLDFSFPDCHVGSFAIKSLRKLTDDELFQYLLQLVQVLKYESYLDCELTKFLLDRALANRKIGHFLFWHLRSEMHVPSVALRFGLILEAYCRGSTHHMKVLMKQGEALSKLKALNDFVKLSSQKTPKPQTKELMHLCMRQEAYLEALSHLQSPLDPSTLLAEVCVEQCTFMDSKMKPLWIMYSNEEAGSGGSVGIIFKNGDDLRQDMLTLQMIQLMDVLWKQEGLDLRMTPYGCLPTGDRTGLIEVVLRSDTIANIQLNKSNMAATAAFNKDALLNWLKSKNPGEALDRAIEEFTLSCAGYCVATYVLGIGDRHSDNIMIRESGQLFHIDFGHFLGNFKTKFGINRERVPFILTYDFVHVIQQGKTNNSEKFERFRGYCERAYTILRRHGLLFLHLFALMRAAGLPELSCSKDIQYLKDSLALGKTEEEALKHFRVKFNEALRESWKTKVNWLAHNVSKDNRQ

[4] = molecular target: kinases (KINOMEscan panel) (Homo sapiens, UniProt Q9UKE5); settings: TNIK; NEW KINOMEscan
kinases (KINOMEscan panel) (Homo sapiens, UniProt Q9UKE5), sequence (Q9UKE5 whole entry): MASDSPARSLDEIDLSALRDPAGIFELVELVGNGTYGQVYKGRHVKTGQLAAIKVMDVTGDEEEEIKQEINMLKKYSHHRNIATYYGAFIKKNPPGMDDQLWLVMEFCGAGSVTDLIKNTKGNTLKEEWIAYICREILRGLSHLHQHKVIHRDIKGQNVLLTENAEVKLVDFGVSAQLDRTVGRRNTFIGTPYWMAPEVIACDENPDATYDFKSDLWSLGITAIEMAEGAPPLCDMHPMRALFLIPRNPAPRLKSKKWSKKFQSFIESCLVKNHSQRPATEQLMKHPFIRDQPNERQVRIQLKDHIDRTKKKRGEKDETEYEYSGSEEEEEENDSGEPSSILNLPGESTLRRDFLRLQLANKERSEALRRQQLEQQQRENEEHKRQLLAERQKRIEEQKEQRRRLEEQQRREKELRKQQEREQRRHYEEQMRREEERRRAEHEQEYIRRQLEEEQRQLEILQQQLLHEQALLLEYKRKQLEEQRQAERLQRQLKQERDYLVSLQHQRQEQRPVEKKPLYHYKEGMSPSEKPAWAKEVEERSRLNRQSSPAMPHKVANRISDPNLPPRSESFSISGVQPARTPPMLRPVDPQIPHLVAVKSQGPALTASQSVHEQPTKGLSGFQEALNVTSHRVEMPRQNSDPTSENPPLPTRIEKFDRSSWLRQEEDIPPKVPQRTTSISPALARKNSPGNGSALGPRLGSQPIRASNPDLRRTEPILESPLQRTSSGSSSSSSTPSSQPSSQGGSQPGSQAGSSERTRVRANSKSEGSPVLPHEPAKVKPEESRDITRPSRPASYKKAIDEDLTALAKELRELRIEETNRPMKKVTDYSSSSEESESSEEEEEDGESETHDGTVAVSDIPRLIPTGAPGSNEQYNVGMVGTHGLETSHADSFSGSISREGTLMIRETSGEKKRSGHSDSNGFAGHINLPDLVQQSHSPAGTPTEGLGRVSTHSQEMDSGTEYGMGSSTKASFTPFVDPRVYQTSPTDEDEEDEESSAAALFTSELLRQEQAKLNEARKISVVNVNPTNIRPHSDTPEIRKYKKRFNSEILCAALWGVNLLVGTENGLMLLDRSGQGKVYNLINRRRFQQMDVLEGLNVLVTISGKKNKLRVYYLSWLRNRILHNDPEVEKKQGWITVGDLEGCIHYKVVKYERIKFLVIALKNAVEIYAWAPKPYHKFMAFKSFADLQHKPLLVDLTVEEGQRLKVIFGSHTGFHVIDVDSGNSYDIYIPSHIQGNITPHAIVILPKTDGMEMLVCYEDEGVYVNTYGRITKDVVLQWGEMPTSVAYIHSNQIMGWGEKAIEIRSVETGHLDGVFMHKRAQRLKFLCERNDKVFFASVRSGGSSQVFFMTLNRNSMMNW

[5] = molecular target: kinases (KINOMEscan panel) (Homo sapiens, UniProt P53671); settings: LIMK2; NEW KINOMEscan
kinases (KINOMEscan panel) (Homo sapiens, UniProt P53671), sequence (P53671 whole entry): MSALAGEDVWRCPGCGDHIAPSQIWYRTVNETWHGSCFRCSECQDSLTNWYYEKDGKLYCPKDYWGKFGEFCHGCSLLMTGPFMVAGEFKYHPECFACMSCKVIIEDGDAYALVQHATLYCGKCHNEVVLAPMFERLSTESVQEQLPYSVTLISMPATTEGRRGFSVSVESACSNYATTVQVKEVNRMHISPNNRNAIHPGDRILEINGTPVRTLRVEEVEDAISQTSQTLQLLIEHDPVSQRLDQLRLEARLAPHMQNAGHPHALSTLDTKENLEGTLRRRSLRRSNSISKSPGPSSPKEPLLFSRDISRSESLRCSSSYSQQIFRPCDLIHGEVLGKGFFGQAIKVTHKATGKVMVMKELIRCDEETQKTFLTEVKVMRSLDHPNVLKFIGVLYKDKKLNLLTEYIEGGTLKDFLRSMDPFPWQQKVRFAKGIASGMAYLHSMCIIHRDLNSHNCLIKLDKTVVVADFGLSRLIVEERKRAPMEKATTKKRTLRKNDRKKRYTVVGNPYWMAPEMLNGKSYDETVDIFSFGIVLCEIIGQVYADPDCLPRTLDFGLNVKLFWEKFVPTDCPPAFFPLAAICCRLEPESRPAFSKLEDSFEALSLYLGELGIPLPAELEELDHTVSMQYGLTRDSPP

[6] = molecular target: kinases (KINOMEscan panel) (Homo sapiens, UniProt P42336, E542K); settings: NEW KINOMEscan
kinases (KINOMEscan panel) (Homo sapiens, UniProt P42336, E542K), sequence (P42336 whole entry E542K): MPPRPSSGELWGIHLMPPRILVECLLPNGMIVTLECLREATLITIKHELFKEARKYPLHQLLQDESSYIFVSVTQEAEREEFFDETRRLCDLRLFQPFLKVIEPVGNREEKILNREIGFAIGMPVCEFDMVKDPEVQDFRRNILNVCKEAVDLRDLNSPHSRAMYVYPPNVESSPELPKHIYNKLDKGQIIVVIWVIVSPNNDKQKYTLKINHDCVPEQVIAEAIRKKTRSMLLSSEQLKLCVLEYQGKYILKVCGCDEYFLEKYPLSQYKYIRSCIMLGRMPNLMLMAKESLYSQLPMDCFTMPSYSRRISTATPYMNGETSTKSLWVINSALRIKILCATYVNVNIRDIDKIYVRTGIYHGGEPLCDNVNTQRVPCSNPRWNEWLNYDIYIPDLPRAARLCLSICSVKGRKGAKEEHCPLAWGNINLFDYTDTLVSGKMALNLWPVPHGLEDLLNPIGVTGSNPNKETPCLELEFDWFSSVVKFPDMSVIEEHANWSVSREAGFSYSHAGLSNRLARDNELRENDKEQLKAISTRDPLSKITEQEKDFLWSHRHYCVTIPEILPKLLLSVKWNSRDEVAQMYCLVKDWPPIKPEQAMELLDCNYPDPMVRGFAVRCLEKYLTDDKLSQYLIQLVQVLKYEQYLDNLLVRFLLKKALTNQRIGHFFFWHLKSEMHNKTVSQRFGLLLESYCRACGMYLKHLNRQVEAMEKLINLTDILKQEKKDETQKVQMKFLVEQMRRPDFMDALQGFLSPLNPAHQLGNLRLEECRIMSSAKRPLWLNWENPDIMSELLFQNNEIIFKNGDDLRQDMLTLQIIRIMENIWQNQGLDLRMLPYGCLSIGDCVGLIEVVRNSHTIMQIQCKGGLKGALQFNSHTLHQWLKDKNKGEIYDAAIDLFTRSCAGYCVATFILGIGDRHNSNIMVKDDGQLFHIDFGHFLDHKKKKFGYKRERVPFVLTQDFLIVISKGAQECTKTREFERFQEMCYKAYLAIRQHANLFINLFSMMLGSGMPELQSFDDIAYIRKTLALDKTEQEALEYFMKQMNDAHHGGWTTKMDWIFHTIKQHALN

Compound | KINOMEscan LATS1 [1] | KINOMEscan COQ8B [2] | KINOMEscan PIK3CD [3] | KINOMEscan TNIK [4] | KINOMEscan LIMK2 [5] | KINOMEscan PIK3CA(E542K) [6]
Cc1cccc(-c2nc(Nc3ccc4nn(C)cc4c3)c3ccccc3n2)n1 [NK167] | 0 | 0 | 0 | 0 | 3 | 15
Cc1cccc(-c2nc(N(C)c3ccc4ncsc4c3)c3ccccc3n2)n1 [NK-161] | 5 | 0 | 2 | 0 | 9 | 19
